In US11795199B2, “Peptide targeting Mycobacterium tuberculosis toxin-antitoxin system and use thereof” (Seoul National University R&DB Foundation, priority 2017, dated 2023):

Target: VapBC26 protein complex (Mycobacterium tuberculosis, UniProt O53778)
Sequence (O53778 whole entry, one chain of several): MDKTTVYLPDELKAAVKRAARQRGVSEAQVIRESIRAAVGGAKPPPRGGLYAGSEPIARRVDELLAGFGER

Sequence	concentration of VapBC26 from which the results of RFU were similar [µM]	inhibition of VapBC26 toxin-antitoxin complex formation (binding inhibitor, seen as increased ribonuclease activity)	ribonuclease activity of VapBC26 compared with addition of SEQ. ID. NO: 11 and SEQ. ID. NO: 13 peptides
DAELAVLRELAG [mimetic peptide for VapC26 α4]	≥ 10	acted as a VapBC26 binding inhibitor	more increased
PYVVAELDYLVATRVG [mimetic peptide for VapC26 α3]	–	acted as a VapBC26 binding inhibitor	–
YLVATRVGVDAELAV	–	acted as a VapBC26 binding inhibitor	–
